In the test the target is human GPR40 receptor (Homo sapiens, UniProt O14842). The test can be described thus: Assay I: IP1 accumulation (IPOne HTRF) in 1321N1 cells stably expressing human GPR40. It is filed as cell-based. To be noted: 1321N1 cells expressing human GPR40, stimulation 1 hour at 37° C., 10% CO2, final LiCl 50 mM. A digest of the protocol: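 1321N1 cells stably expressing human GPR40 stimulated with compound for 1 hour at 37° C in HEPES-buffered saline, pH 7.4, with 50 mM LiCl final. IP1 measured by HTRF (665/615 ratio) after lysis; pEC50 derived via an IP1 reference curve and variable-slope sigmoidal fit.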
human GPR40 receptor, sequence (O14842 whole entry): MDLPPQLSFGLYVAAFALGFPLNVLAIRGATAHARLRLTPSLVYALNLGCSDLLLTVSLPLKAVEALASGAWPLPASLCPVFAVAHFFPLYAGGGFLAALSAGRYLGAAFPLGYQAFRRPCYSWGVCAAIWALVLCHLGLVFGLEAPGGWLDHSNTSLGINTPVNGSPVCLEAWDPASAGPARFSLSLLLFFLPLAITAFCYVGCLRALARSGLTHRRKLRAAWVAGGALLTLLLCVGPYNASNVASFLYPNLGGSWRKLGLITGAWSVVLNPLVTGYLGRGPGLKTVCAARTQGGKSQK

From patent US8642585B2, “Indanyloxydihydrobenzofuranylacetic acids” (Boehringer Ingelheim International GmbH, priority 2012, dated 2014) come the findings set out here.

Broadly, the EC50 is the midpoint of the concentration-response curve. The low end stands for an effect from little substance, the high end for a need for much substance. In the case of `Cc1cc(C(=O)N2CCOCC2)cc(C)c1-c1ccc(F)c2c1CC[C@H]2Oc1ccc2c(c1)OC[C@H]2CC(=O)O` [Example 63, 2-((S)-6-((R)-4-(2,6-Dimethyl-4-(morpholine-4-carbonyl)phenyl)-7-fluoro-2,3-dihydro-1H-inden-1-yloxy)-2,3-dihydrobenzofuran-3-yl)acetic acid], the 50% effective concentration (EC50) came out at 38 nM. This lies in the double-digit nanomolar range. To `Cc1cc(OCC2CCOC2)cc(C)c1-c1ccc(F)c2c1CC[C@H]2Oc1ccc2c(c1)OC[C@H]2CC(=O)O` (stereo partly drawn) [Example 2, 2-((3S)-6-((1R)-4-(2,6-dimethyl-4-((tetrahydrofuran-3-yl)methoxy)phenyl)-7-fluoro-2,3-dihydro-1H-inden-1-yloxy)-2,3-dihydrobenzofuran-3-yl)acetic acid] belongs 5 nM. Then `CCS(=O)(=O)N1CC(COc2cc(C)c(-c3ccc(F)c4c3CC[C@H]4Oc3ccc4c(c3)OC[C@H]4CC(=O)O)c(C)c2)C1` [Example 30, 2-((S)-6-((R)-4-(4-((1-(Ethylsulfonyl)azetidin-3-yl)methoxy)-2,6-dimethylphenyl)-7-fluoro-2,3-dihydro-1H-inden-1-yloxy)-2,3-dihydrobenzofuran-3-yl)acetic acid], with 7 nM. To `COCCCS(=O)(=O)c1cc(C)c(-c2ccc(F)c3c2CC[C@H]3Oc2ccc3c(c2)OC[C@H]3CC(=O)O)c(C)c1` [Example 53, ((S)-6-{(R)-7-Fluoro-4-[4-(3-methoxy-propane-1-sulfonyl)-2,6-dimethyl-phenyl]-indan-1-yloxy}-2,3-dihydro-benzofuran-3-yl)-acetic acid] belongs 1220 nM; to `Cc1cc(C(=O)N(C)C)cc(C)c1-c1ccc(F)c2c1CC[C@H]2Oc1ccc2c(c1)OC[C@H]2CC(=O)O` [Example 61, 2-((S)-6-((R)-4-(4-(Dimethylcarbamoyl)-2,6-dimethylphenyl)-7-fluoro-2,3-dihydro-1H-inden-1-yloxy)-2,3-dihydrobenzofuran-3-yl)acetic acid], 51 nM; to `Cc1cc(-c2ccnn2C)cc(C)c1-c1ccc(F)c2c1CC[C@H]2Oc1ccc2c(c1)OC[C@H]2CC(=O)O` [Example 20, 2-((S)-6-((R)-4-(2,6-Dimethyl-4-(1-methyl-1H-pyrazol-5-yl)phenyl)-7-fluoro-2,3-dihydro-1H-inden-1-yloxy)-2,3-dihydrobenzofuran-3-yl)acetic acid], 9 nM. `Cc1cc(O[C@H]2CCN(S(C)(=O)=O)C2)cc(C)c1-c1ccc(F)c2c1CC[C@H]2Oc1ccc2c(c1)OC[C@H]2CC(=O)O` [Example 34, 2-((S)-6-((R)-4-(2,6-Dimethyl-4-((S)-1-(methylsulfonyl)pyrrolidin-3-yloxy)phenyl)-7-fluoro-2,3-dihydro-1H-inden-1-yloxy)-2,3-dihydrobenzofuran-3-yl)acetic acid]: the response was half-maximal at 11 nM (EC50). To `Cc1cc(-c2ncco2)cc(C)c1-c1ccc(F)c2c1CC[C@H]2Oc1ccc2c(c1)OC[C@H]2CC(=O)O` [Example 18, 2-((S)-6-((R)-4-(2,6-Dimethyl-4-(oxazol-2-yl)phenyl)-7-fluoro-2,3-dihydro-1H-inden-1-yloxy)-2,3-dihydrobenzofuran-3-yl)acetic acid] belongs 4 nM.
